Tests used:
[1] = magnetizing relaxation rate via NMR (R1, R2); format: physicochemical; details: B0 = 0.47 T, vertical relative relaxation
[2] = B0 = 1.0T; cited from earlier work

Q: With `CNC[C@H](O)[C@@H](O)[C@H](O)[C@H](O)CO.CNC[C@H](O)[C@@H](O)[C@H](O)[C@H](O)CO.O=C([O-])CN(CCN(CC(=O)[O-])CC(=O)O)CCN(CC(=O)[O-])CC(=O)O.[Gd+3]` [Magnevist ™] as the compound, how does the “R1(20 MHz)” value [1] read?
A: 6.14

Q: What about the “R1 (Literature)” value [2] of the same compound?
A: R1 = 3.4

Source: patent publication US20100204508A1, “DENDRITIC COMPOUND AND USE THEREOF” (Industrial Technology Research Institute, priority 2004, published 2010)
